# Tests used:
# HaCaT cells [1] = test: In-vitro screening with MTT method, inhibition of proliferation of HaCaT cells; type: cell-based, human; conditions: about 48 hours incubation
# Description: Compound No. 5 was dissolved in DMSO, and gradiently diluted with PBS to prepare solutions at concentration of 1000 μg/ml, 100 μg/ml, 10 μg/ml, 1 μg/ml, 0.1 μg/ml, and 0.01 μg/ml, respectively. Cis-platinum (CDDP) was used as positive control, and sample solutions were prepared with the same method. The sample solutions were added into a 96-well plate placed with the growth phase human immortalized keratinocyte (HaCaT) cells (Pharmacology Laboratory of Shanghai Institute of Pharmaceutical Industry), and were incubated for about 48 hours. The cell relative survival rate was determined by the MTT method, and calculated according to the following formula based on the light absorption value at […]. Cell relative survival rate=(Light absorption value of sample treatment group—background light absorption value)/(Light absorption value of DMSO treatment group—background light absorption value).
# [2] = tested on: mouse vaginal epidermal cells; test: Effect on mitosis of mouse vaginal epidermal cells; type: in vivo; conditions: cream 5% w/w, 25 μl intravaginal once daily, 3 days, estradiol-treated mice, n = 6
# Description: Except for the saline control group, sexually mature female mice were injected with estradiol subcutaneously at a dosage of 35 mg/kg for 3 successive days. On the fourth day, in-estrus mice were selected with vaginal smear. The mice were randomly divided into several groups: (a) saline control group, saline was used in each administration; (b) blank cream group, blank cream was used in each administration; (c) calcipotriol control group, calcipotriol in cream (5% w/w) was used in each administration; (d) four testing groups, Compound No 5 in cream at concentration of 0.5%, 1%, 2%, and 4% (w/w), respectively, was used in each application. 25 μl corresponding treatment was injected into the vagina of the mice once daily for 3 successive days. Colchicine (15 mg/Kg) was intraperitoneally injected 2 hours after the last dosing. The mice were sacrificed 6 hours after the injection of colchicine. The vaginal tissue was taken out for pathological examination. The number of mitosis in one hundred basal cells was counted, which was named as the mitotic index.
# guinea pig ear epidermis = test: Propranolole hydrochloride-induced psoriasis in guinea pig model; type: in vivo; conditions: cream 5% w/w, 200 μl on both ears twice daily, 7 days
# Description: Except for those in Saline control group, guinea pigs were treated with propranolole hydrochloride cream (5% w/w, 200 μl) uniformly applied on the back of both ears twice daily for four successive weeks. After four weeks, the […] were divided into several groups, namely, blank cream group, calcipotriol group, and four testing cream groups with Compound 5 at concentration of 0.5%, 1%, 2%, and 4% (w/w)), respectively. The guinea pigs in Saline control group were treated with saline on the back of both ears; the guinea pigs in other groups were treated with corresponding cream on the back of both ears (200 μl) twice daily for 7 successive days. The guinea pigs were examined during the experiment period and sacrificed 1 hour after the last dosing.
# mouse tail epidermis = test: Effect on mouse tail epidermis (granular layer of tail scales); type: in vivo; conditions: cream 5% (w/w), 100 μl once daily, 7 days, female mice, n = 10
# Description: 70 female mice were randomly divided into several groups: (a) saline control group, saline was used in each administration; (b) blank cream group, blank cream was used in each administration; (c) calcipotriol control group, calcipotriol in cream (5% w/w) was used in each administration; (d) four testing groups, Compound No 5 in cream at 0.5%, 1%, 2%, and 4% (w/w), respectively, was used in each administration. 100 μl of corresponding treatment was applied to the same position on the tail of the mice once daily for seven successive days. The mice were sacrificed 1 hour after the last application. The treated skin parts were taken for pathological examination, and the tail scales of each mouse was assessed under a microscope. The number of scales having a granular layer in every 100 scales was counted, and the result was expressed as percentage.
# HaCaT cells [3] = test: Morphological examination of the effect on HaCaT cell differentiation; type: cell-based, human; conditions: 48 h incubation, immunohistochemical staining
# Description: HaCaT cells were cultured in DMEM culture medium containing 10% FBS under 37° C. and 5% CO2 concentration. When reaching 80% of the culture bottle area and after digestion by 0.25% trypsin, the cells were adjusted to a concentration of 4×10^4/ml and moved to a 6-well plate respectively (containing sterilized slide). Compound solutions were added. The cells were applied to the corresponding wells, and a blank control group (saline) was set. Both the sample groups and the control group were placed in a cell incubator at 37° C. Immumohistochemical staining was conducted after incubation at 48 h.
# The imagine in FIG. 1A is dark brown, indicating large amount of keratin is present. […] Compound No. 5 underwent cornification (positive result).
# [4] = tested on: chick chorioallantoic membrane; test: Chick chorioallantoic membrane (CAM) angiogenesis model; type: in vivo, chicken; conditions: 4.0 μg/egg, 48 h
# Description: Fresh eggs were incubated for 6 successive days under 37° C. and 50% humidity. On the 6th day, live eggs were identified and taken out for window-opening. First, the chorioallantoic membrane was located with illumination. Droplets of Compound No. […] After air dry, the filter paper was placed on the chorioallantoic membrane gently without contacting big vessels. The window was sealed with a transparent adhesive tape. The eggs were incubated for 48 hours continuously. The transparent adhesive tape was then uncovered. The window was enlarged and photos were taken under a dissecting microscope (FIGS. 2 A-B). New vessels were counted based on the number of blood vessel branch points in each photo. Inhibitory rate=100−[(number of new blood vessels in treatment group at 24 h)/(number of new blood vessels in treatment group at 0 h)]/[(number of blood vessels in negative control group at 24 h)/(number of blood vessels in negative control group at 0 h)]×100%.
Structure (SMILES),"Test Results, effect on HaCat cell differentiation (HaCaT cells [3])",other results
"N.N.[Cl][Pt][Cl] [CDDP, Cis-platinum, reference compound]",,HaCaT Cells IC50 (HaCaT cells [1]): 1.41 µg/mL
"C=C1/C(=C\C=C2/CCC[C@]3(C)[C@@H]([C@H](C)/C=C/[C@@H](O)C4CC4)CC[C@@H]23)C[C@@H](O)C[C@@H]1O [Calcipotriol, calcipotriol, reference compound]",,Mitotic cell number/total cell number (%) [2]: 15.33 ± 1.21 %; Epidermal thickness (μm) (guinea pig ear epidermis): 158.72 ± 2.93 μm; Scales quantity in granular layer * 100% (mouse tail epidermis): 50.50 ± 4.95 %
"C[C@H](c1cccc(Cl)c1)N1CCn2cc(-c3c[nH]c4ncc(-c5ccccc5)cc34)cc2C1=O [Compound 2, (R)-2-(1-(3-chlorophenyl)ethyl)-7-(5-phenyl-1H-pyrrolo[2,3-b]pyridin-3-yl)-3,4-dihydropyrrolo[1,2-a]pyrazin-1(2H)-one]",Positive,
"C[C@H](c1cccc(Cl)c1)N1CCn2cc(-c3n[nH]c4ncc(-c5ccccc5)cc34)cc2C1=O [Compound 3, (R)-2-(1-(3-chlorophenyl)ethyl)-7-(5-phenyl-1H-pyrazolo[3,4-b]pyridin-3-yl)-3,4-dihydropyrrolo[1,2-a]pyrazin-1(2H)-one]",Positive,
"Cc1cnc(Nc2ccc(F)cc2Cl)nc1-c1cc2n(c1)CCN([C@H](C)c1cccc(Cl)c1)C2=O [Compound 6, (R)-7-(2-((2-chloro-4-fluorophenyl)amino)-5-methylpyrimidin-4-yl)-2-(1-(3-chlorophenyl)ethyl)-3,4-dihydropyrrolo[1,2-a]pyrazin-1(2H)-one]",Positive,
"Cc1cnc(Nc2ccc(F)cc2Cl)nc1-c1cc2n(c1)CCCN([C@H](CO)c1cccc(Cl)c1)C2=O [Compound 7, (S)-8-(2-((2-chloro-4-fluorophenyl)amino)-5-methylpyrimidin-4-yl)-2-(1-(3-chlorophenyl)-2-hydroxyethyl)-2,3,4,5-tetrahydro-1H-pyrrolo[1,2-a][1,4]diazepin-1-one]",Positive,
"Cc1cnc(Nc2ccc(F)cc2Cl)nc1-c1cc2n(c1)CCN([C@H](CO)c1ccc(Cl)cc1)C2=O [Compound 8, (S)-7-(2-((2-chloro-4-fluorophenyl)amino)-5-methylpyrimidin-4-yl)-2-(1-(4-chlorophenyl)-2-hydroxyethyl)-3,4-dihydropyrrolo[1,2-a]pyrazin-1(2H)-one]",Positive,
"Cc1cnc(Nc2ccc(F)cc2Cl)nc1-c1cc2n(c1)CCN([C@H](CO)c1cccc(F)c1)C2=O [Compound 9, (S)-7-(2-((2-chloro-4-fluorophenyl)amino)-5-methylpyrimidin-4-yl)-2-(1-(3-fluorophenyl)-2-hydroxyethyl)-3,4-dihydropyrrolo[1,2-a]pyrazin-1(2H)-one]",Positive,
"Cc1cnc(Nc2ccc(F)cc2Cl)nc1-c1cc2n(c1)CCN([C@H](CO)c1ccc(F)cc1)C2=O [Compound 10, (S)-7-(2-((2-chloro-4-fluorophenyl)amino)-5-methylpyrimidin-4-yl)-2-(1-(4-fluorophenyl)-2-hydroxyethyl)-3,4-dihydropyrrolo[1,2-a]pyrazin-1(2H)-one]",Positive,
"Cc1cnc(Nc2ccc(N3CCNCC3)cc2Cl)nc1-c1cc2n(c1)CCN([C@H](CO)c1cccc(Cl)c1)C2=O [Compound 11, (S)-7-(2-((2-chloro-4-(piperazin-1-yl)phenyl)amino)-5-methylpyrimidin-4-yl)-2-(1-(3-chlorophenyl)-2-hydroxyethyl)-3,4-dihydropyrrolo[1,2-a]pyrazin-1(2H)-one]",Positive,
"Cc1cnc(Nc2ccc(C3CCNCC3)cc2Cl)nc1-c1cc2n(c1)CCN([C@H](CO)c1cccc(Cl)c1)C2=O [Compound 12, (S)-7-(2-((2-chloro-4-(piperidin-4-yl)phenyl)amino)-5-methylpyrimidin-4-yl)-2-(1-(3-chlorophenyl)-2-hydroxyethyl)-3,4-dihydropyrrolo[1,2-a]pyrazin-1(2H)-one]",Positive,
"Cc1cnc(Nc2ccc(C3CCN(C(C)C)CC3)cc2Cl)nc1-c1cc2n(c1)CCN([C@H](CO)c1cccc(Cl)c1)C2=O [Compound 13, (S)-7-(2-((2-chloro-4-(1-isopropylpiperidin-4-yl)phenyl)amino)-5-methylpyrimidin-4-yl)-2-(1-(3-chlorophenyl)-2-hydroxyethyl)-3,4-dihydropyrrolo[1,2-a]pyrazin-1(2H)-one]",Positive,
"Cc1cnc(Nc2ccc(N3CCN(S(C)(=O)=O)CC3)cc2Cl)nc1-c1cc2n(c1)CCN([C@H](CO)c1cccc(Cl)c1)C2=O [Compound 16, (S)-7-(2-((2-chloro-4-(4-(methylsulfonyl)piperazin-1-yl)phenyl)amino)-5-methylpyrimidin-4-yl)-2-(1-(3-chlorophenyl)-2-hydroxyethyl)-3,4-dihydropyrrolo[1,2-a]pyrazin-1(2H)-one]",Positive,
"Cc1cnc(Nc2ccc(F)cc2)nc1-c1cc2n(c1)CCN([C@H](CO)c1cccc(Cl)c1)C2=O [Compound 17, (S)-2-(1-(3-chlorophenyl)-2-hydroxyethyl)-7-(2-((4-fluorophenyl)amino)-5-methylpyrimidin-4-yl)-3,4-dihydropyrrolo[1,2-a]pyrazin-1(2H)-one]",Positive,
"Cc1cnc(NC2CCOCC2)nc1-c1cc2n(c1)CCN(C(c1ccc(Cl)c(F)c1)c1cnn(C)c1)C2=O (centres unmarked) [Compound 19, 2-((4-chloro-3-fluorophenyl)(1-methyl-1H-pyrazol-4-yl)methyl)-7-(5-methyl-2-((tetrahydro-2H-pyran-4-yl)amino)pyrimidin-4-yl)-3,4-dihydropyrrolo[1,2-a]pyrazin-1(2H)-one]",Positive,
"Cc1cnc(NC2CCCCC2)nc1-c1cc2n(c1)CCN([C@H](CO)c1cccc(Cl)c1)C2=O [Compound 20, (S)-2-(1-(3-chlorophenyl)-2-hydroxyethyl)-7-(2-(cyclohexylamino)-5-methylpyrimidin-4-yl)-3,4-dihydropyrrolo[1,2-a]pyrazin-1(2H)-one]",Positive,
"CNC(=O)c1cc(Oc2ccc(NC(=O)Nc3ccc(Cl)c(C(F)(F)F)c3)cc2)ccn1 [Sorafeni, Sorafenib, reference compound]",,Number of new blood vessels 48 h ([4]; n = 3): 18.17 ± 7.60; Inhibitory rate (%) ([4]; versus PBS group): 77.27%
